Laboratory results published in patent EP1680415B1, “PYRROLIDINYL UREA DERIVATIVES AS ANGIOGENESIS INHIBITORS” (ABBOTT LABORATORIES, priority 2003, dated 2005).

Tested on: HMVEC
Assay: human microvascular endothelial (HMVEC) migration assay
Assay type: cell-based
Details: Inhibition of HMVEC migration, activators 15 ng/mL bFGF/VEGF, 4 hours at 37 °C, compared to a positive control; for inhibition at 0.0001 µM / inhibition at 0.001 µM: Homo sapiens; for inhibition at 0.001 µM: 1 nM
Protocol: The human microvascular endothelial (HMVEC) migration assay was run according to the procedure of S. S. Tolsma, O. V. Volpert, D. J. Good, W. F. Frazier, P. J. Polverini and N. Bouck, J. Cell Biol. 122, 497-511 (1993).
The HMVEC migration assay was carried out using Human Microvascular Endothelial Cells-Dermal (single donor) and Human Microvascular Endothelial Cells, (neonatal). The BCE or HMVEC cells were starved overnight in DME containing 0.01% bovine serum albumin (BSA). Cells were then harvested with trypsin and resuspended in DME with 0.01 % BSA at a concentration of 1.5 X 10^6 cells per mL. Cells were added to the bottom of a 48 well modified Boyden chamber (Nucleopore Corporation, Cabin John, MD). The chamber was assembled and inverted, and cells were allowed to attach for 2 hours at 37 °C to polycarbonate chemotaxis membranes (5 µm pore size) that had been soaked in 0.01 % gelatin overnight and dried. The chamber was then reinverted, and test substances (total volume of 50 µL), including activators, 15 ng/mL bFGF/VEGF, were added to the wells of the upper chamber. The apparatus was incubated for 4 hours at 37 °C. Membranes were recovered, fixed and stained (Diff Quick, Fisher Scientific) and the number of cells that had migrated to the upper chamber per 3 high power fields counted. Background migration to DME + […] was subtracted and the data reported as the number of cells migrated per 10 high power fields (400X) or, when results from multiple experiments were combined, as the percent inhibition of migration compared to a positive control.

Compound | inhibition at 0.0001 µM (0.1 nM) [%] | other results
Cc1ccc(C(=O)N2CC[C@@H](NC(=O)N[C@@H](CO)c3ccccc3)C2)c(Cl)n1 [Example 37, N-{(3R)-1-[(2-chloro-6-methylpyridin-3-yl)carbonyl]pynolidin-3-yl}-N'-[(1R)-2-hydroxy-1-phenylethyl]urea] |  | % Inhibition @ 0.1 nM (0.1 nM): 73%
CCOCCCNC(=O)N[C@@H]1CCN(C(=O)c2ccc(C)nc2Cl)C1 [Example 38, N-{(3R)-1-[(2-chloro-6-methylpyridin-3-yl)carbonyl]pyrrolidin-3-yl}-N'-(3-ethoxypropyl)urea] | 99 | 
Cc1ccc(C(=O)N2CC[C@@H](NC(=O)NCCCOC(C)C)C2)c(Cl)n1 [Example 39, N-{(3R)-1-[(2-chloro-6-methylpyridin-3-yl)carbonyl]pyrrolidin-3-yl}-N'-(3-isopropoxypropyl)urea] |  | inhibition at 0.001 µM: 72%
Cc1ccc(C(=O)N2CC[C@@H](NC(=O)NCCCOCC(C)C)C2)c(Cl)n1 [Example 40, N-{(3R)-1-[(2-chloro-6-methylpyridin-3-yl)carbonyl]pyrrolidin-3-yl}-N'-(3-isobutoxypropyl)urea] | 72 | 
CSCCCNC(=O)N[C@@H]1CCN(C(=O)c2ccc(C)nc2Cl)C1 [Example 41, N-{(3R)-1-[(2-chloro-6-methylpyridin-3-yl)carbonyl]pyrrolidin-3-yl}-N'-[3-(methylthio)propyl]urea] | 87 | 
Cc1ccc(C(=O)N2CC[C@@H](NC(=O)N(Cc3ccccc3)Cc3ccccc3)C2)c(Cl)n1 [Example 43, N,N-dibenzyl-N'-{(3R)-1-[(2-chloro-6-methylpyridin-3-yl)carbonyl]pyrrolidin-3-yl}urea] | 73 | 
Cc1ccc(C(=O)N2CC[C@@H](NC(=O)N(C)CCc3ccccc3)C2)c(Cl)n1 [Example 44, N'-{(3R)-1-[(2-chloro-6-methylpyridin-3-yl)carbonyl]pyrrolidin-3-yl}-N-methyl-N-(2-phenylethyl)urea] | 80 | 
COc1ccc(CCN(C)C(=O)N[C@@H]2CCN(C(=O)c3ccc(C)nc3Cl)C2)cc1OC [Example 45, N'-{(3R)-1-[(2-chloro-6-methylpyridin-3-yl)carbonyl]pyrrolidin-3-yl}-N-[2-(3,4-dimethoxyphenyl)ethyl]-N-methylurea] | 82 | 
Cc1ccc(C(=O)N2CC[C@@H](NC(=O)N3CCC(Cc4ccccc4)CC3)C2)c(Cl)n1 [Example 46, 4-benzyl-N-{(3R)-1-[(2-chloro-6-methylpyridin-3-yl)carbonyl]pyrrolidin-3-yl}piperidine-1-carboxamide] | 99 | 
Cc1ccc(C(=O)N2CC[C@@H](NC(=O)N3CCC(n4c(=O)[nH]c5ccccc54)CC3)C2)c(Cl)n1 [Example 47, N-{(3R)-1-[(2-chloro-6-methylpyridin-3-yl)carbonyl]pyrrolidin-3-yl}-4-(2-oxo-2,3-dihydro-1H-benzimidazol-1-yl)piperidine-1-carboxanude] |  | inhibition at 0.001 µM: 80%
Cc1ccc(C(=O)N2CC[C@@H](NC(=O)N3CCN(c4ccccc4)CC3)C2)c(Cl)n1 [Example 48, N-{(3R)-1-[(2-chloro-6-methylpyridin-3-yl)carbonyl]pyrrolidin-3-yl}-4-phenylpiperazine-1-carboxamide] |  | inhibition at 0.001 µM: 78%
CCN(CC)CCN(C)C(=O)N[C@@H]1CCN(C(=O)c2ccc(C)nc2)C1 [Example 49, N-[2-(diethylamino)ethyl]-N-methyl-N'-{(3R)-1-[(6-methylpyridin-3-yl)carbonyl]pyrrolidin-3-yl}urea] | 65 | 
CCN(Cc1ccccc1)C(=O)N[C@@H]1CCN(C(=O)c2ccc(C)nc2)C1 [Example 50, N-benzyl-N-ethyl-N'-{(3R)-1-[(6-methylpyridin-3-yl)carbonyl]pyrrolidin-3-yl} urea] | 76 | 
Cc1ccc(C(=O)N2CC[C@@H](NC(=O)N(Cc3ccccc3)C(C)C)C2)cn1 [Example 51, N-benzyl-N-isopropyl-N'-{(3R)-1-[(6-methylpyridin-3-yl)carbonyl]pyrrolidin-3-yl}urea] |  | inhibition at 0.001 µM: 60%
CCCCN(Cc1ccccc1)C(=O)N[C@@H]1CCN(C(=O)c2ccc(C)nc2)C1 [Example 52, N-benzyl-N-butyl-N'-{(3R)-1-[(6-methylpyridin-3-yl)carbonyl]pyrrolidin-3-yl}urea] |  | inhibition at 0.001 µM: 80%
Cc1ccc(C(=O)N2CC[C@@H](NC(=O)N(Cc3ccccc3)Cc3ccccc3)C2)cn1 [Example 53, N,N-dibenzyl-N'-{(3R)-1-[(6-methylpyridin-3-yl)carbonyl]pyrrolidin-3-yl} urea] | 78 | 
Cc1ccc(C(=O)N2CC[C@@H](NC(=O)N(CCc3ccccc3)Cc3ccccc3)C2)cn1 [Example 54, N-benzyl-N'-{(3R)-1-[(6-methylpyridin-3-yl)carbonyl]pyrrolidin-3-yl}-N-(2-phenylethyl)urea] |  | inhibition at 0.001 µM: 78%

Compound | inhibition at 0.0001 µM (0.1 nM) [%] | other results
CCN(CC)C(=O)C1CCCN(C(=O)N[C@@H]2CCN(C(=O)c3ccc(C)nc3)C2)C1 (stereo partly drawn) [Example 55, N^3,N^3-diethyl-N^1-{(3R)-1-[(6-methylpyridin-3-yl)carbonyl]pyrrolidin-3-yl}piperidine-1,3-dicarboxamide] |  | inhibition at 0.001 µM: 93%
Cc1ccc(C(=O)N2CC[C@@H](NC(=O)N3CCC(n4c(=O)[nH]c5ccccc54)CC3)C2)cn1 [Example 56, N-{(3R)-1-[(6-methylpyridin-3-yl)carbonyl]pyrrolidin-3-yl}-4-(2-oxo-2,3-dihydro-1H-benzimidazol-1-yl)piperidine-1-carboxamide] | 86 | 
CCN1CCN(C(=O)N[C@@H]2CCN(C(=O)c3ccc(C)nc3)C2)CC1 [Example 57, 4-ethyl-N-{(3R)-1-[(6-methylpyridin-3-yl)carbonyl]pyrrolidin-3-yl}piperazine-1-carboxamide] | 86 | 
Cc1ccc(C(=O)N2CC[C@@H](NC(=O)N3CCN(Cc4ccccc4)CC3)C2)cn1 [Example 58, 4-benzyl-N-{(3R)-1-[(6-methylpyridin-3-yl)carbonyl]pyrrolidin-3-yl}piperazine-1-carboxamide] | 71 | 
CCCN(C)C(=O)N[C@@H]1CCN(C(=O)c2ccc(C)nc2)C1 [Example 59, N-methyl-N'-{(3R)-1-[(6-methylpyridin-3-yl)carbonyl]pyrrolidin-3-yl}-N-propylurea] | 93 | 
Cc1ccc(C(=O)N2CC[C@@H](NC(=O)N(C)CC(C)C)C2)cn1 [Example 60, N-isobutyl-N-methyl-N'-{(3R)-1-[(6-methylpyridin-3-yl)carbonyl]pyrrolidin-3-yl}urea] | 67 | 
Cc1ccc(C(=O)N2CC[C@@H](NC(=O)N(C)CCC(C)C)C2)cn1 [Example 61, N-methyl-N-(3-methylbutyl)-N'-{(3R)-1-[(6-methylpyridin-3-yl)carbonyl]pyrrolidin-3-yl}urea] | 66 | 
C#CCN(C)C(=O)N[C@@H]1CCN(C(=O)c2ccc(C)nc2)C1 [Example 62, N-methyl-N'-{(3R)-1-[(6-methylpyridin-3-yl)carbonyl]pyrrolidin-3-yl}-N-prop-2-ynylurea] | 54 | 
CCCN(CC)C(=O)N[C@@H]1CCN(C(=O)c2ccc(C)nc2)C1 [Example 63, N-ethyl-N'-{(3R)-1-[(6-methylpyridin-3-yl)carbonyl]pyrrolidin-3-yl}-N-propylurea] | 72 | 
CCCN(C(=O)N[C@@H]1CCN(C(=O)c2ccc(C)nc2)C1)C(C)C [Example 64, N-isopropyl-N'-{(3R)-1-[(6-methylpyridin-3-yl)carbonyl]pyrrolidin-3-yl}-N-propylurea] | 70 | 
CCCN(C(=O)N[C@@H]1CCN(C(=O)c2ccc(C)nc2)C1)C(C)CC (stereo partly drawn) [Example 65, N-(sec-butyl)-N'-{(3R)-1-[(6-methylpyridin-3-yl)carbonyl]pyrrolidin-3-yl}-N-propylurea] |  | inhibition at 0.001 µM: 98%
CCCCN(CCCC)C(=O)N[C@@H]1CCN(C(=O)c2ccc(C)nc2)C1 [Example 66, N,N-dibutyl-N'-{(3R)-1-[(6-methylpyridin-3-yl)carbonyl]pyrrolidin-3-yl} urea] | 84 | 
Cc1ccc(C(=O)N2CC[C@@H](NC(=O)N(CCC#N)C3CC3)C2)cn1 [Example 67, N-(2-cyanoethyl)-N-cyclopropyl-N'-{(3R)-1-[(6-methylpyridin-3-yl)carbonyl]pyrrolidin-3-yl}urea] | 73 | 
CCC1CCCCN1C(=O)N[C@@H]1CCN(C(=O)c2ccc(C)nc2)C1 (stereo partly drawn) [Example 68, 2-ethyl-N-{(3R)-1-[(6-methylpyridin-3-yl)carbonyl]pyrrolidin-3-yl}piperidine-1-carboxamide] |  | inhibition at 0.001 µM: 46%
CCCC1CCN(C(=O)N[C@@H]2CCN(C(=O)c3ccc(C)nc3)C2)CC1 [Example 69, N-{(3R)-1-[(6-methylpyridin-3-yl)carbonyl]pyrrolidin-3-yl} -4-propylpiperidine-1-carboxamide] | 87 | 
Cc1ccc(C(=O)N2CC[C@@H](NC(=O)N3CCCCCC3)C2)cn1 [Example 70, N-{(3R)-1-[(6-methylpyridin-3-yl)carbonyl]pyrrolidin-3-yl}azepane-1-carboxamide] | 97 | 
